Among the data in US11352350B2, “IRAK degraders and uses thereof” (Kymera Therapeutics, Inc., priority 2018, dated 2022) are IC50 and DC50 values, retold here.

The subject of one experiment is OCI-LY10. Nature of the experiment: CTG Cell Viability Assay - OCI-LY10. The class given is cell-based, human. Conditions: OCI-LY10, 4 days, read-out: CTG Cell Viability Assay - OCI-LY10: Average external-IC50. The essentials: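 OCI-LY10 cells exposed to 9-dose, 1:3 dilutions from 10 μM top (0.2% DMSO) for 4 days at 37° C, 5% CO2. Viability by CellTiter-Glo luminescence; IC50 from three-parameter logistic fit.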

The target in a further experiment is IRAK4 (Homo sapiens (Human), UniProt Q9NWZ3). Nature of the experiment: IRAK4 MSD degradation in OCI-LY10. In kind it is cell-based. In a few lines:
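OCI-LY10 cells treated with 8-point 1:3 dilutions (top 1 to 10 μM final) for 4 to 24 h at 37° C. Lysate IRAK4 measured by MSD sandwich immunoassay (2H9 capture, Y279 detection, SULFO-TAG anti-rabbit). DC50 from three-parameter logistic fit.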

[1] abbreviates: OCI-LY10, 4 hrs, MSD, read-out: IRAK4 MSD degradation in OCI-LY10 at 4 hrs: Average external-Abs DC50.
Setting [2] is: OCI-LY10, 24 hrs, MSD, read-out: IRAK4 MSD degradation in OCI-LY10 at 24 hrs: Average external-Abs DC50.
Where [3] appears, read: OCI-LY10, 4 hrs, read-out: IRAK4 MSD degradation in OCI-LY10 at 4 hrs: DC50.
[4] abbreviates: OCI-LY10, 24 hrs, read-out: IRAK4 MSD degradation in OCI-LY10 at 24 hrs: DC50.

Read-outs that look alike come from different tables or passages of the source. A value given as a limit tells only on which side of the number the result lay.

Sequence of IRAK4 (Q9NWZ3 whole entry): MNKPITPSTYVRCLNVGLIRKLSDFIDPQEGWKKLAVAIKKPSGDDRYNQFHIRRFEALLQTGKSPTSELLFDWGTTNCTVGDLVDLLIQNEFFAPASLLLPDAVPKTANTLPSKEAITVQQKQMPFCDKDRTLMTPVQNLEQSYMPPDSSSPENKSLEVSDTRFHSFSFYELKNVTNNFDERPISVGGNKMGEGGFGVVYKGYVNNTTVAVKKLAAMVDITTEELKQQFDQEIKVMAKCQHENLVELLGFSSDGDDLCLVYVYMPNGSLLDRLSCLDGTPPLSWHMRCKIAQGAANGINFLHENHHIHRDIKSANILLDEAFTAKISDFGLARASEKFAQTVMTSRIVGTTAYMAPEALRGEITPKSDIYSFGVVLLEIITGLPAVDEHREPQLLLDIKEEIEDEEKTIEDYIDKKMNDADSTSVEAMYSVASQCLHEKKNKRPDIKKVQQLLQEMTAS

As to `CN(CCCOCCCNC(=O)c1ccc(CNCc2ccc(-c3ccc4c(cnn4CC4CC4)c3)cc2)cc1)C(=O)[C@H]1CC[C@H](n2cc(NC(=O)c3coc(-c4ccnc(NCC5CC5)c4)n3)c(C(F)F)n2)CC1` [I-132], the IC50 in the experiment on OCI-LY10 (Homo sapiens, OCI-Ly10, 96 h) was greater than 1000 nM. Moreover, the DC50 on IRAK4 (setting [1]) and on IRAK4 (setting [2]) was greater than 1000 nM each time.

As for `N#CCc1ccc2c(NC3CCC(N4CCN(C(=O)COCCOCCOCCNc5cccc6c5C(=O)N(C5CCC(=O)NC5=O)C6=O)CC4)CC3)ncnc2c1` (centres unmarked) [I-51], the IC50 in the experiment on OCI-LY10 (Homo sapiens, OCI-Ly10, 96 h) was greater than 1000 nM. In addition, the half-maximal degradation concentration (DC50) on IRAK4 (setting [1]) was greater than 1000 nM.

`CN(C[C@@H]1CN(CCCCc2cccc3c2C(=O)N(C2CCC(=O)NC2=O)C3=O)CCO1)C[C@H]1CC[C@H](n2cc(NC(=O)c3coc(-c4ccnc(NCC5CC5)c4)n3)c(C(F)F)n2)CC1` (some centres unmarked) [I-343]: the IC50 in the experiment with OCI-LY10 is less than 50 nM. In addition, the DC50 on IRAK4 (setting [1]) lay within 10 to 100 nM.

Take `CN(CC1CCN(Cc2ccc3c(c2)n(C)c(=O)n3C2CCC(=O)NC2=O)CC1)C[C@H]1CC[C@H](n2cc(NC(=O)c3coc(-c4ccnc(NCC5CC5)c4)n3)c(C(F)F)n2)CC1` (some centres unmarked) [I-127]: in the experiment on OCI-LY10 (Homo sapiens, OCI-Ly10, 96 h), the 50% inhibitory concentration (IC50) was greater than 1000 nM. For the same compound, the DC50 on IRAK4 (setting [1]) and at IRAK4 (setting [2]) was less than 10 nM throughout.

`CN(C[C@H]1CC[C@H](n2cc(NC(=O)c3coc(-c4ccnc(NCC5CC5)c4)n3)c(C(F)F)n2)CC1)C1CCN(Cc2cccc3c2n(C)c(=O)n3[C@@H]2CCC(=O)NC2=O)CC1` [I-309, 2-(2-((cyclopropylmethyl)amino)pyridin-4-yl)-N-(3-(difluoromethyl)-1-((1R,4r)-4-(((1-((1-((R)-2,6-dioxopiperidin-3-yl)-3-methyl-2-oxo-2,3-dihydro-1H-benzo [d]imidazol-4-yl)methyl)piperidin-4-yl)(methyl)amino)methyl)cyclohexyl)-1H-pyrazol-4-yl)oxazole-4-carboxamide]: the IC50 in the experiment with OCI-LY10 (Homo sapiens, OCI-Ly10, 96 h) was less than 50 nM. Also, the DC50 at IRAK4 (setting [1]) lay within 10 to 100 nM.

For the compound `O=C1CCC(N2C(=O)c3cccc(NCCCOC4CCN(Cc5ccc(-n6cc(NC(=O)c7cnn8ccc(N9C[C@H]%10CC9CO%10)nc78)c(C(F)F)n6)cc5)CC4)c3C2=O)C(=O)N1` (some centres unmarked) [I-438], the 50% inhibitory concentration (IC50) in the experiment on OCI-LY10 (Homo sapiens, OCI-Ly10, 96 h) was 50 to 100 nM. Moreover, the DC50 lay in the range of 100 to 1000 nM on IRAK4 (setting [1]) and 10 to 100 nM at IRAK4 (setting [2]).

For `Cn1c(=O)n(C2CCC(=O)NC2=O)c2ccc(CCCCCCC(=O)N3CCN([C@H]4CC[C@H](Nc5ncnc6[nH]cc(C7CCOCC7)c56)CC4)CC3)cc21` (some centres unmarked) [I-22], the IC50 with OCI-LY10 (Homo sapiens, OCI-Ly10, 96 h) lay within 100 to 500 nM. Besides, the 50% degradation concentration (DC50) at IRAK4 (setting [1]) and at IRAK4 (setting [2]) was greater than 1000 nM each time.

As for `O=C1CCC(N2C(=O)c3cccc(NCCCCC[C@@H]4CN(C[C@H]5CC[C@H](n6cc(NC(=O)c7cnn8ccc(N9C[C@H]%10C[C@@H]9CO%10)nc78)c(C(F)F)n6)CC5)CCO4)c3C2=O)C(=O)N1` (some centres unmarked) [I-460], the IC50 in the experiment on OCI-LY10 (Homo sapiens, OCI-Ly10, 96 h) lay in the range of 50 to 100 nM. The figures for the DC50 on IRAK4 (setting [3]) and at IRAK4 (setting [4]) were 100 to 1000 nM and 10 to 100 nM, respectively.

For `COc1cc(C(=O)NCCCCN(C)C[C@H]2CC[C@H](n3cc(NC(=O)c4coc(-c5ccnc(NCC6CC6)c5)n4)c(C(F)F)n3)CC2)ccc1NC(=O)[C@@H]1N[C@@H](CC(C)(C)C)[C@](C#N)(c2ccc(Cl)cc2F)[C@H]1c1cccc(Cl)c1F` [I-142], the IC50 in the experiment on OCI-LY10 was greater than 1000 nM. In addition, the DC50 at IRAK4 (setting [1]) and at IRAK4 (setting [2]) was greater than 1000 nM each time.

As for `CN[C@@H](C)C(=O)N[C@H](C(=O)N1CCC[C@H]1c1nc(C(=O)c2cccc(OCCOCCOCCOCCOCCNC[C@H]3CC[C@H](n4cc(NC(=O)c5coc(-c6ccnc(NCC7CC7)c6)n5)c(C(F)F)n4)CC3)c2)cs1)C1CCCCC1` [I-274], the IC50 in the experiment with OCI-LY10 (Homo sapiens, OCI-Ly10, 96 h) lay in the range of 500 to 1000 nM. The DC50 on IRAK4 (setting [1]) and at IRAK4 (setting [2]) was 100 to 1000 nM each time.

Take `CN1C(=O)CCC(N2C(=O)c3cccc(NCC4CC5(CCN(C[C@H]6CC[C@H](n7cc(NC(=O)c8cnn9ccc(N%10C[C@H]%11C[C@@H]%10CO%11)nc89)c(C(F)F)n7)CC6)CC5)C4)c3C2=O)C1=O` (some centres unmarked) [I-323]: the IC50 in the experiment with OCI-LY10 (Homo sapiens, OCI-Ly10, 96 h) is greater than 1000 nM. In addition, the DC50 on IRAK4 (setting [1]) was 100 to 1000 nM; on IRAK4 (setting [2]), greater than 1000 nM.

As to `O=C1CCC(N2C(=O)c3cccc(NCCCOC4CCN(C[C@H]5OC[C@H](n6cc(NC(=O)c7cnn8ccc(N9CCOCC9)nc78)c(C(F)F)n6)CO5)CC4)c3C2=O)C(=O)N1` (some centres unmarked) [I-451, N-[3-(difluoromethyl)-1-[2-[[4-[3-[[2-(2,6-dioxo-3-piperidyl)-1,3-dioxo-isoindolin-4-yl]amino]propoxy]-1-piperidyl]methyl]-1,3-dioxan-5-yl]pyrazol-4-yl]-5-morpholino-pyrazolo [1,5-a] pyrimidine-3-carboxamide], the IC50 with OCI-LY10 (Homo sapiens, OCI-Ly10, 96 h) was in the range of 100 to 500 nM. In addition, the DC50 on IRAK4 (setting [3]) and at IRAK4 (setting [4]) was 10 to 100 nM in each case.

Consider `CN(C[C@H]1CC[C@H](n2cc(NC(=O)c3cnn4ccc(N5CCOCC5)nc34)c(C(F)F)n2)CC1)C1CCC(N(C)c2cccc3c2C(=O)N(C2CCC(=O)NC2=O)C3=O)CC1` (some centres unmarked) [I-222], for which the IC50 in the experiment on OCI-LY10 (Homo sapiens, OCI-Ly10, 96 h) lay in the range of 100 to 500 nM. The DC50 at IRAK4 (setting [1]) fell in the range of 10 to 100 nM.

Regarding `CN(CCCOCCCNc1cccc2c1C(=O)N(C1CCC(=O)NC1=O)C2=O)C[C@H]1CC[C@H](n2cc(NC(=O)c3coc(-c4ccnc(N[C@@H]5CCCC[C@@H]5O)c4)n3)c(C(F)F)n2)CC1` (some centres unmarked) [I-399], the IC50 in the experiment on OCI-LY10 (Homo sapiens, OCI-Ly10, 96 h) is less than 50 nM. For the same compound, the results for the DC50 on IRAK4 (setting [1]) and on IRAK4 (setting [2]) were 10 to 100 nM and less than 10 nM, respectively.

The IC50 is the concentration that gives 50% inhibition. As a reminder, the DC50 is the midpoint of the concentration-degradation curve.
